Biological target: T1, Tyrosine-protein kinase receptor TYRO3 (Homo sapiens, UniProt Q06418)
T1 sequence (Q06418 whole entry): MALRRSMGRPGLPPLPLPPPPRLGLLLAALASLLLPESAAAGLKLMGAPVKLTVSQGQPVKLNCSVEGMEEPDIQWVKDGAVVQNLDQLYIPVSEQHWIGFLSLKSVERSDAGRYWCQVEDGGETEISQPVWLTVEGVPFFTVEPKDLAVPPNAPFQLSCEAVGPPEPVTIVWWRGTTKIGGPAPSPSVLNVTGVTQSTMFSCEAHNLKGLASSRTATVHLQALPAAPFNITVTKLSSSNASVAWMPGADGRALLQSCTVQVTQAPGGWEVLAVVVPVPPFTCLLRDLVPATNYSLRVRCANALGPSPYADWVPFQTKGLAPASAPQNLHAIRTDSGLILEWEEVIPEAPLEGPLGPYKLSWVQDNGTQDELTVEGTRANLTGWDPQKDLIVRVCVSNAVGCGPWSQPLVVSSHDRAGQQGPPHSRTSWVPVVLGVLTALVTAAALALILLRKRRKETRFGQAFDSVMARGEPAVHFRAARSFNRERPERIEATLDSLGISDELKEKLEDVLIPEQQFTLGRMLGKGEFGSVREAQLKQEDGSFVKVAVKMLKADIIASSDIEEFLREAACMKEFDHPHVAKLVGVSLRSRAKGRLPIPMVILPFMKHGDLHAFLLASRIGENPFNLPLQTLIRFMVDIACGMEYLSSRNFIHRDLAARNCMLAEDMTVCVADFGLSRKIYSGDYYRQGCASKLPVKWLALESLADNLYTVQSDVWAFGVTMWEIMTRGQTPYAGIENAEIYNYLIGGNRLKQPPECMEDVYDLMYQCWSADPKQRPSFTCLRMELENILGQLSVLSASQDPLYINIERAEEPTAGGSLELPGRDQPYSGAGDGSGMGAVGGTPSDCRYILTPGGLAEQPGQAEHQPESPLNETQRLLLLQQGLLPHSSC
Assay: TAM Enzymatic Assay
Experimental: The kinase assay buffer contained 50 mM HEPES, pH7.5, 10 mM MgCl2, 1 mM EGTA, 0.01% NP-40 and 2 mM DTT. 0.1 ul test compounds dissolved in DMSO were transferred from compound plates to white 384-well assay plates (Greiner […] plates). The final concentration of DMSO was 1.25%. Enzyme solutions of 5.1 nM phosphor-Axl, or 0.0625 nM c-Mer (Carna Biosciences, 08-108), or 0.366 nM Tyro3 (Life Technologies, PR7480A) were prepared in assay buffer. A 1 mM stock solution of peptide substrate Biotin-[…]-amide SEQ ID NO: 1 (Quality Controlled Biochemicals, MA) dissolved in DMSO was diluted to 1 uM in assay buffer containing 2000 uM ATP. 4 ul enzyme solution (or assay buffer for the enzyme blank) was added to the appropriate wells in each plate, and then 4 ul/well substrate solution was added to initiate the reaction. The plate was protected from light and incubated at room temperature for 60 min. […] The plate was incubated for 1 h at room temperature, and HTRF (homogenous time resolved fluorescence) signal was measured on a PHERAstar FS plate reader (BMG labtech). Percentage of inhibition was calculated for each concentration and IC50 value was generated from curve fitting with GraphPad Prism software.

## CC(C)C(=O)N1CCC(c2cc(-c3ccc(NC(=O)c4cn(C(C)C)c(=O)n(-c5ccccn5)c4=O)cc3)c3c(N)ncnn23)CC1 [US11241438, Compound I]
  IC50: 55 nM
